Results: US20220144823A1, “PYRAZOLOPYRIDINE DERIVATIVES AS INHIBITORS OF PASK” (Galapagos NV, priority 2019, published 2022)

What was measured:
human PASK = molecular target: T1, human PASK (Homo sapiens, UniProt Q96RG2); test: ADP-Glo kinase assay; format: biochemical; settings: ADPGlo PASK kinase assay, 25 μM ATP, ZIPtide 25 μM
T1 construct: purchased ThermoFisher Scientific PR7013A
Procedure: The ADP-Glo™ kinase assay is a luminescent technology assay which measures the ADP formed from a kinase reaction. In this specific study, the kinase reactions consisted of the phosphorylation of the ZIPtide peptide substrate by human recombinant PASK. In a second step the kinase reaction is terminated and all the remaining ATP is depleted. In a final step the ADP is converted into ATP and this newly synthesized ATP is measured by using a luciferase/luciferin reaction. The generated light is measured using an Envision plate reader, wherein the luminescent signal obtained positively correlates with the kinase activity.
The test compounds are prepared as a serial dilution of 10 point dose responses with 1/5 dilution steps in 100% DMSO starting from 2 mM highest concentration, diluted 1/20 in water and 1 μL is transferred to the assay plates (PerkinElmer Inc., Cat #6007290).
1% DMSO and 10 μM staurosporine final concentrations are used respectively as negative and positive controls.
2 μL enzyme-substrate mixture is added to the assay plates.
The reaction is started by adding 2 μL diluted ATP on the assay plates immediately after addition of the enzyme-substrate mixture to the compound. Plates are centrifuged for a few seconds at 1000 rpm and gently shaken for 2 min followed by an incubation at RT for 120 min.
The reactions are stopped and the unconsumed ATP is depleted by adding 5 μL ADP-Glo Reagent (Promega, Cat #V912B) to the reaction. The plates are centrifuged for a few seconds at 1000 rpm and incubated at RT for 40 min (ATP depletion).
The ADP is converted to ATP and luciferase and luciferin is introduced to detect ATP by adding 10 μL Kinase Detection Reagent (Promega, Cat #V913B+V914B) to the reaction. The plates are centrifuged for a few seconds at 1000 rpm and incubated at RT for 30 min (ADP detection).
Luminescence is measured on an Envision plate reader (PerkinElmer Inc.).
Raw data are generated following the read-out performed on the Envision plate reader, used to calculate percentage inhibition (PIN) values and plotted to generate dose response curves and derive the average half maximal inhibitory concentrations (IC50) reported in Table VIII.

[1] = tested on: diabetic non human primates (NHPs) under a high-calorie diet (HCD); test: Diabetic monkey model;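 also: male obese diabetic cynomolgus monkeys fed a high-fat, high-fructose diet, randomized into 4 groups, dosed with test compound for 8 weeks, then a 4-week washout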
Procedure: The aim of this assay is to determine the effect of a test compound on lipid metabolism and glucose handling in diabetic non human primates (NHPs) under a high-calorie diet (HCD) consisting of high-fat and high-fructose.
Male obese diabetic cynomolgus monkeys were selected based on their body weights, glucose, insulin levels, and blood lipid parameters. The inclusion criteria were the following: age ≤22 years; fasted plasma glucose between 120 and 300 mg/dL; triglycerides >125 mg/dL, and insulin >75 mIU/mL.
The animals are maintained at 20-23° C. and 40-70% humidity on a 12 h light/dark cycle (7 AM-7 PM). Water is provided ad libitum and the animals are fed twice daily with the high-calorie diet (HCD) enriched with seasonal fruits or vegetables.
After the baseline period, animals were randomized into 4 groups according to body weight, as well as their blood glucose and lipid parameters.
The following parameters were measured once per week during the 8 weeks of treatment and also during the 4 weeks of washout: • body weight • food consumption • blood chemistry (fasted blood glucose, plasma triglycerides, plasma total cholesterol, low density lipoproteins (LDL), and high density lipoproteins (HDL))
Oral glucose tolerance was measured in fasted animals before treatment initiation (baseline), at the end of the treatment period (week 8), and after 4 weeks of washout (week 12).

[2] = week 1, treatment, metformin 25 mg/kg b.i.d., Cpd 18 30 mg/kg q.d., p.o.
[3] = week 2, treatment, metformin 25 mg/kg b.i.d., Cpd 18 30 mg/kg q.d., p.o.
[4] = week 3, treatment, metformin 25 mg/kg b.i.d., Cpd 18 30 mg/kg q.d., p.o.
[5] = week 4, treatment, metformin 25 mg/kg b.i.d., Cpd 18 30 mg/kg q.d., p.o.
[6] = week 9, washout without treatment
[7] = week 10, washout without treatment
[8] = week 11, washout without treatment
[9] = week 12, washout without treatment

T1 sequence (Q96RG2 whole entry): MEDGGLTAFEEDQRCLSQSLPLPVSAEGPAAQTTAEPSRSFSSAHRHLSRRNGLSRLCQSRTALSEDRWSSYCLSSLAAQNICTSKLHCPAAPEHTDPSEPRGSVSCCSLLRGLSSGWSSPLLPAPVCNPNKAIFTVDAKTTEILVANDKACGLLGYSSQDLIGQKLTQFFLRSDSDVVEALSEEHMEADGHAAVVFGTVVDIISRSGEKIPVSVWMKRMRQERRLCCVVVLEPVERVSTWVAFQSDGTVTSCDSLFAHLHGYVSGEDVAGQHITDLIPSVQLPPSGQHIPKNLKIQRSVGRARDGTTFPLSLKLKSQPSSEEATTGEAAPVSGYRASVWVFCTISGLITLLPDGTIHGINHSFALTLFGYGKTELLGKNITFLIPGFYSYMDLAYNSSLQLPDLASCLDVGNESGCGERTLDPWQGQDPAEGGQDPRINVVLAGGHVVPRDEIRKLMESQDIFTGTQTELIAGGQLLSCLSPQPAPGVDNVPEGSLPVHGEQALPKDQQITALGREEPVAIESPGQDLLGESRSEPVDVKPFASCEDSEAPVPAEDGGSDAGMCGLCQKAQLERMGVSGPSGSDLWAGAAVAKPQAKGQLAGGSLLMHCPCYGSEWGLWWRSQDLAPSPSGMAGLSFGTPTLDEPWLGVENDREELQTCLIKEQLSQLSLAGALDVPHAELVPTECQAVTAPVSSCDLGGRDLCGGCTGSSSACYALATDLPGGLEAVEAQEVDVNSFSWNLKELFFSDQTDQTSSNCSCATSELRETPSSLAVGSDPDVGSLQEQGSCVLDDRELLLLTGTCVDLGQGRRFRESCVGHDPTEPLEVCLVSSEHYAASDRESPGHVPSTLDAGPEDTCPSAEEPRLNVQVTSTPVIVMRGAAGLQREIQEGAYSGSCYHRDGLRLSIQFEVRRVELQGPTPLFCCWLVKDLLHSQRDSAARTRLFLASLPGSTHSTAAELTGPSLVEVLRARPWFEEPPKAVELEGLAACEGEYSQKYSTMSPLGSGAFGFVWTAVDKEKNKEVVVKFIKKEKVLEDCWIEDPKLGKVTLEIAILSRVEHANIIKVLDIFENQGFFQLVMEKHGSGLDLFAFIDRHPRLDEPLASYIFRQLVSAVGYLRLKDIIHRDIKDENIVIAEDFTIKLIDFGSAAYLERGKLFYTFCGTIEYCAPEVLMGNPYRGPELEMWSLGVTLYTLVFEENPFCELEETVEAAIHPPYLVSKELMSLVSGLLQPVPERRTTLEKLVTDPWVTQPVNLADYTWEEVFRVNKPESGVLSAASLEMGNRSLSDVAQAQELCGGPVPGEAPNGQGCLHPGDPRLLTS

Cn1cc(-c2cnn3ccc(-c4cc(C(=O)O)co4)cc23)c(C(F)(F)F)n1 [Cpd 10, 5-[3-[1-methyl-3-(trifluoromethyl)pyrazol-4-yl]pyrazolo[1,5-a]pyridin-5-yl]furan-3-carboxylic acid]
IC50 (human PASK): 0.01 to 10 nM

Cc1c(-c2cnn3ccc(-c4cc(C(=O)O)co4)cc23)cnn1C [Cpd 12, 5-[3-(1,5-dimethylpyrazol-4-yl)pyrazolo[1,5-a]pyridin-5-yl]furan-3-carboxylic acid]
IC50 (human PASK): 0.01 to 10 nM

Cc1nn(C)c(C)c1-c1cnn2ccc(-c3cc(C(=O)OCOC(=O)C(C)(C)C)co3)cc12 [Cpd 13, 2,2-dimethylpropanoyloxymethyl 5-[3-(1,3,5-trimethylpyrazol-4-yl)pyrazolo[1,5-a]pyridin-5-yl]furan-3-carboxylate]
IC50 (human PASK): 100 to 500 nM

Cc1noc(C)c1-c1cnn2ccc(-n3cc(C(=O)O)cn3)cc12 [Cpd 47, 1-[3-(3,5-dimethylisoxazol-4-yl)pyrazolo[1,5-a]pyridin-5-yl]pyrazole-4-carboxylic acid]
IC50 (human PASK): 10 to 100 nM

Cc1nn(C(C)C)c(C)c1-c1cnn2ccc(-c3ccc(C(=O)O)o3)cc12 [Cpd 48, 5-[3-(1-isopropyl-3,5-dimethyl-pyrazol-4-yl)pyrazolo[1,5-a]pyridin-5-yl]furan-2-carboxylic acid]
IC50 (human PASK): 0.01 to 10 nM

Cc1nn(C(F)F)c(C)c1-c1cnn2ccc(-c3ncc(C(=O)O)o3)cc12 [Cpd 49, 2-[3-[1-(difluoromethyl)-3,5-dimethyl-pyrazol-4-yl]pyrazolo[1,5-a]pyridin-5-yl]oxazole-5-carboxylic acid]
IC50 (human PASK): 0.01 to 10 nM

Cc1nn(C(F)F)c(C)c1-c1cnn2ccc(-c3ccc(C(=O)O)o3)cc12 [Cpd 51, 5-[3-[1-(difluoromethyl)-3,5-dimethyl-pyrazol-4-yl]pyrazolo[1,5-a]pyridin-5-yl]furan-2-carboxylic acid]
IC50 (human PASK): 0.01 to 10 nM

Cc1nn(C(C)C)c(C)c1-c1cnn2ccc(-n3cc(C(=O)O)cn3)cc12 [Cpd 52, 1-[3-(1-isopropyl-3,5-dimethyl-pyrazol-4-yl)pyrazolo[1,5-a]pyridin-5-yl]pyrazole-4-carboxylic acid]
IC50 (human PASK): 0.01 to 10 nM

Cc1nn(CC(F)(F)F)c(C)c1-c1cnn2ccc(-c3cc(C(=O)O)c(C4=CCOCC4)o3)cc12 [Cpd 53, 2-(3,6-dihydro-2H-pyran-4-yl)-5-[3-[3,5-dimethyl-1-(2,2,2-trifluoroethyl)pyrazol-4-yl]pyrazolo[1,5-a]pyridin-5-yl]furan-3-carboxylic acid]
IC50 (human PASK): 0.01 to 10 nM

Cc1nn(C(F)F)c(C)c1-c1cnn2ccc(-c3cc(C(=O)O)c(C4=CCOCC4)o3)cc12 [Cpd 54, 5-[3-[1-(difluoromethyl)-3,5-dimethyl-pyrazol-4-yl]pyrazolo[1,5-a]pyridin-5-yl]-2-(3,6-dihydro-2H-pyran-4-yl)furan-3-carboxylic acid]
IC50 (human PASK): 0.01 to 10 nM

Cc1nn(CC(F)(F)F)c(C)c1-c1cnn2ccc(-c3cc(C(=O)O)c(C4CCOCC4)o3)cc12 [Cpd 55, 5-[3-[3,5-dimethyl-1-(2,2,2-trifluoroethyl)pyrazol-4-yl]pyrazolo[1,5-a]pyridin-5-yl]-2-tetrahydropyran-4-yl-furan-3-carboxylic acid]
IC50 (human PASK): 0.01 to 10 nM

CN(C)C(=N)N=C(N)N [metformin, reference compound]
Bodyweight change (% change from baseline) [1, 2]: 1.0% | HbA1c change (% change from baseline) [1, 2]: −2.8% | Bodyweight change (% change from baseline) [1, 3]: −0.7% | HbA1c change (% change from baseline) [1, 3]: −12.3% | Bodyweight change (% change from baseline) [1, 4]: −1.3% | HbA1c change (% change from baseline) [1, 4]: −17.2% | Bodyweight change (% change from baseline) [1, 5]: −5.2% | HbA1c change (% change from baseline) [1, 5]: −18.9% | Bodyweight change (% change from baseline) [1, 6]: −6.5% | HbA1c change (% change from baseline) [1, 6]: −24.1% | Bodyweight change (% change from baseline) [1, 7]: −7.3% | HbA1c change (% change from baseline) [1, 7]: −23.5% | Bodyweight change (% change from baseline) [1, 8]: −6.3% | HbA1c change (% change from baseline) [1, 8]: −30.1% | Bodyweight change (% change from baseline) [1, 9]: −6.1% | HbA1c change (% change from baseline) [1, 9]: −28.6%
